# From patent US20090018642A1, “Methods to improve the stability of celluar adhesive proteins and peptides” (BOSTON SCIENTIFIC SCIMED, INC., priority 2007, published 2009)
# Like-named read-outs stand apart in the source and are kept apart here.
# How the values were obtained:
# [1] = on the order of; cited from earlier work
# [2] = Procedure: A blank solution with PBS only was also prepared.
# 8 mm Liberte WH stents were placed in the wells of a 48-well polystyrene plate and 240 μl of each peptide concentration (including the blank) was then added to each well. The plates were then incubated for at least 1 hr at room temperature (RT) with gentle shaking (100 rpm) to allow for binding to occur. Excess peptide solution was removed and discard using a micropipette.
# The stents were then washed 3 times with 1.5 ml PBS-Tween, with approximately 30 sec of shaking at 150 rpm between washes. 1.5 ml of 1% bovine serum albumin (BSA) in PBS (blocking solution) was then added to each stent and incubated for 1 hr at RT with gentle shaking (100 rpm) to allow for blocking to occur. After 1 hr, excess blocking solution was removed and discarded with a micropipette. The stent was then washed 3 times with 1.5 ml PBS-Tween using the wash method described above.
# 300 μl of Streptavidin-AP (alkaline phosphatase) solution was added to each stent at 1/1000 in TBS+1% BSA and incubated for 30 min at room temperature with gentle shaking (100 rpm). Excess Streptavidin solution was then removed and discarded. The stents were then washed 2 times with 1.5 ml PBS-Tween and then transferred to a set of new wells on the same plate using tweezers. Once the stents were moved, they were then washed once more with 1.5 ml PBS-Tween. 300 μl of the chromogen p-nitrophenyl phosphate (PNPP) was added to each stent in the 48 well plate. The plate was then placed on the shaker platform and incubated for 5 minutes at 100 rpm to allow color development to occur. 10 μl of sodium hydroxide (NaOH) was then added to the wells of a 96 well tissue culture plate. To stop the color development, 100 μl of the solution in each stent containing well was transferred to a well containing NaOH in the 96 well plate.
# Optical density (OD) was determined by reading the 96 well plate in a plate reader (Spectramax Plus, Molecular Devices) at 405 nm in endpoint mode. The measured OD for the blank was subtracted from the ODs for all other solutions. The resulting ODs were plotted (y-axis) vs. concentration (μM) (log x-axis).
# The OD at 5 min (405 nm) was measured at 1 hr, 4 hr and 24 hrs as described above.
# The OD at 5 min (405 nm) was measured and the EC50 was determined as described above.
# [3] = Langmuir isotherm, quartz crystal microbalance with dissipation (QCM-D); type: binding
# Procedure: Stainless Steel Quartz Crystals (Q-Sense, QSX 304) were cleaned with a UV/Ozone treatment (Bioforce, UV […], Model No. […] The crystals were then immersed in a 2% sodium dodecyl sulfate (SDS) (MPI, Product No. 811036) in dH2O solution for 5 minutes, washed thoroughly with dH2O, N2 dried, and UV/Ozone treated for an additional 10 minutes. Surface Characterization: The QCM-D measurements (Q-Sense E4) were made with a solution flow rate of 100 μL per minute. The experiment was temperature controlled at 25° C. In the experiments, four samples were tested at one time using the QCM-D. Each experiment included running PBS for approximately 10 minutes to establish a stable baseline. The peptide solutions were then added at various concentrations until the change in frequency was 2 Hz per 30 minutes or less. The final step was to wash with PBS for 30 minutes or until the change in frequency was 2 Hz per 30 minutes or less. For analysis purposes (Sauerbrey model, Q-Tools), generally the third overtone was used from each sample.
# [4] = tested on: human coronary artery endothelial cells (HCAEC); test: HCAEC migration on coated stainless steel strips; type: cell-based; conditions: strips pre-coated with 10 μM peptide; 48 hours; uncoated stainless steel normalized to 1; p<0.01
# Description: Migration and proliferation of endothelial cells on biomaterials can impact the rates of reendothelization and angiogenesis, which can be important during the development and success of implantable medical devices. In this experiment, the effect of a surface-binding cell adhesion polypeptide on the motility of human coronary artery endothelial cells (HCAEC) on a stainless steel substrate was examined in vitro. The surface-binding cell adhesion polypeptide used in this example included DOPA as a surface binding moiety, a (ALA-Aib)3 linker, and the recognition sequence for laminin receptors (YIGSR) as the cell adhesion polypeptide [(DOPA)2-(ALA-Aib)3-YIGSR-OH, hereinafter PEPTIDE-1] (synthesized at the MGH Peptide/Protein Core Facility, Harvard Medical School, Boston, Mass.).
# Human coronary artery endothelial cells (HCAEC, available from Cell Applications, Inc., San Diego, Calif.) were used in this study. The substrates were sterile stainless steel strips [3.5″×0.308″×0.031″] or sterile stainless steel strips coated with PEPTIDE-1.
# Collagen gels were prepared using the following protocol: One 10 mg vial of high concentration (HC) Type I collagen (Rat tail, from BD Biosciences, San Jose, Calif.) was diluted with distilled sterile H2O to a final volume of 38 ml and mixed thoroughly without introducing bubbles (by pipetting up and down). […]
molecule,measurement,setting,value
"N[C@@H](Cc1ccc(O)c(O)c1)C(=O)O [DOPA, 3,4 dihydroxyphenylalanine]",binding constant,[1],~10^16
(DOPA)2-(ALA-Aib)3-RIGSY-(Biotin)-OH [PEPTIDE-2],EC50,"[2]; incubation time study, 1 hr",310 nM
same,EC50,"[2]; incubation time study, 4 hr",300 nM
same,EC50,"[2]; incubation time study, 24 hr",270 nM
same,EC50,"[2]; read-out: half-maximal concentration (EC50), concentration range study, coating 1 hour at room temperature",~370 nM
same,affinity for stainless steel in comparison to BSA,[3]; greater affinity than non-specific protein BSA,approx. 3 orders of magnitude
(DOPA)2-(ALA-Aib)3-YIGSR-OH [PEPTIDE-1],HCAEC migration compared to stainless steel alone,[4],1.7 fold
(Dopa)2-(Ala-Aib)3-RIGSY-OH [PEPTIDE-3],EC50,"[3]; QCM-D, 25° C.",280 nM
same,Kd,"[3]; QCM-D, 25° C., Langmuir isotherm fit",260 nM
"bovine serum albumin [BSA, reference compound]",EC50,"[3]; QCM-D, 25° C.",≥ 100000 nM
